By EC50 is commonly meant the concentration at which the effect is half-maximal. Lower therefore signals an effect from little substance.

One molecule from paper PMC11581908 (Nature chemical biology, 2024) can be followed below.

In assay [1] the target is T1, FBXO22 (Homo sapiens, UniProt Q8NEZ5).
T1 sequence (Q8NEZ5 1-403): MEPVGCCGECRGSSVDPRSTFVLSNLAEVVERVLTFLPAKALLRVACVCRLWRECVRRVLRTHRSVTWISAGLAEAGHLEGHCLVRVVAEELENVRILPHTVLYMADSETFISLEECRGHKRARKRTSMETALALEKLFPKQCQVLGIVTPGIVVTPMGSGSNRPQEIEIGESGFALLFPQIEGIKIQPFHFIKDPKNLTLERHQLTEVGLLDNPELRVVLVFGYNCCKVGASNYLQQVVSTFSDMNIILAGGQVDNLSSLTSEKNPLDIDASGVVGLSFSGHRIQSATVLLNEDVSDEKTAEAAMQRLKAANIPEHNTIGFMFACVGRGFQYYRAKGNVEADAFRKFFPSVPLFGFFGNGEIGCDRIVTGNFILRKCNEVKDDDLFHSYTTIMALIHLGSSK
Nature of the assay: cysteine-directed ABPP in cells. The assay is classed as cell-based.

Assay [2] addresses FKBP12 (Homo sapiens, UniProt P62942). The assay is classed as cell-based.

FKBP12, sequence (P62942 2-108): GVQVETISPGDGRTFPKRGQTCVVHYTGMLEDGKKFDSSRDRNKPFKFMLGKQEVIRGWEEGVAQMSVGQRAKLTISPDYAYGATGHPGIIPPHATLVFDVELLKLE

With `CCC(C)(C)C(=O)C(=O)N1CCCC[C@H]1C(=O)O[C@H](CCc1ccc(OC)c(OC)c1)c1cccc(OCC(=O)NCCCOCCOCCOCCCN(C(=O)CCl)C(C(=O)NCc2ccccc2)c2nc3ccccc3s2)c1` (some centres unmarked) [compound 1, 22-SLF], the “% of C228 blocked at 2 μM” value in assay [1] is reported as ~ 20 % of C228 blocked at 2 μM. Besides, the midpoint of the response in assay [2], the EC50, lay at 1960 nM.
